Results published in ChEMBL document CHEMBL1201862, “PubChem BioAssay data set” (2004).
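Dose response: 5 concentrations. Exposure: 48 h. Format: 96-well plates. Endpoint: linear interpolation; highest concentration if not reached. GI50 is the concentration that inhibits growth by half.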 Active and inactive are the calls of the source. No stated cut-off is given here; in the data, active = GI50 up to about 1.1 µM and inactive = higher.

Legend:
Assay in all cases: NCI tumour cell line growth inhibition, 48 h
UACC-62 = test system: UACC-62
COLO 205 = test system: COLO 205
CCRF-CEM = test system: CCRF-CEM
SNB-19 = test system: SNB-19
HT-29 = test system: HT-29
Hs-578T = test system: Hs-578T
HCT-15 = test system: HCT-15
Malme-3M = test system: Malme-3M
MCF7 = test system: MCF7
OVCAR-4 = test system: OVCAR-4
HL-60 = test system: HL-60
LOX IMVI = test system: LOX IMVI
786-0 = test system: 786-0
EKVX = test system: EKVX
MDA-MB-435 = test system: MDA-MB-435
OVCAR-8 = test system: OVCAR-8
SN12C = test system: SN12C
K562 = test system: K562
OVCAR-5 = test system: OVCAR-5
SW-620 = test system: SW-620
NCI-H522 = test system: NCI-H522
SF-539 = test system: SF-539
OVCAR-3 = test system: OVCAR-3
A498 = test system: A498
DU-145 = test system: DU-145
PC-3 = test system: PC-3
IGROV-1 = test system: IGROV-1
SR = test system: SR
T47D = test system: T47D
SF-268 = test system: SF-268
HCC 2998 = test system: HCC 2998
RXF 393 = test system: RXF 393
NCI/ADR-RES = test system: NCI/ADR-RES
UO-31 = test system: UO-31
KM12 = test system: KM12
SNB-75 = test system: SNB-75
UACC-257 = test system: UACC-257
NCI-H226 = test system: NCI-H226
A549 = test system: A549
SK-MEL-28 = test system: SK-MEL-28
MDA-N = test system: MDA-N
M14 = test system: M14
SK-MEL-2 = test system: SK-MEL-2
U-251 = test system: U-251
CAKI-1 = test system: CAKI-1
NCI-H23 = test system: NCI-H23
TK-10 = test system: TK-10
RPMI-8226 = test system: RPMI-8226
NCI-H460 = test system: NCI-H460
ACHN = test system: ACHN
BT-549 = test system: BT-549
HCT-116 = test system: HCT-116
MOLT-4 = test system: MOLT-4
HOP-62 = test system: HOP-62
HOP-92 = test system: HOP-92
SF-295 = test system: SF-295
MDA-MB-231 = test system: MDA-MB-231
SK-MEL-5 = test system: SK-MEL-5

Measured: GI50

O=c1[nH]nc(-c2ccc([N+](=O)[O-])cc2)[nH]1
> 100 µM: HCT-15
inactive: UACC-62 > 100 µM | COLO 205 > 100 µM | CCRF-CEM > 100 µM | SNB-19 > 100 µM | HT-29 > 100 µM | Hs-578T > 100 µM | Malme-3M > 100 µM | MCF7 > 100 µM | OVCAR-4 > 100 µM | HL-60 > 100 µM | LOX IMVI > 100 µM | 786-0 > 100 µM | EKVX 45.4 µM | MDA-MB-435 > 100 µM | OVCAR-8 > 100 µM | SN12C > 100 µM | K562 > 100 µM | OVCAR-5 > 100 µM | SW-620 > 100 µM | NCI-H522 > 100 µM | SF-539 > 100 µM | OVCAR-3 > 100 µM | A498 > 100 µM | DU-145 > 100 µM | PC-3 > 100 µM | IGROV-1 > 100 µM | SR > 100 µM | T47D > 100 µM | SF-268 > 100 µM | HCC 2998 > 100 µM | RXF 393 > 100 µM | NCI/ADR-RES > 100 µM | UO-31 > 100 µM | KM12 > 100 µM | SNB-75 > 100 µM | UACC-257 > 100 µM | NCI-H226 > 100 µM | A549 > 100 µM | SK-MEL-28 > 100 µM | MDA-N > 100 µM | M14 > 100 µM | SK-MEL-2 > 100 µM | U-251 > 100 µM | CAKI-1 > 100 µM | NCI-H23 > 100 µM | TK-10 > 100 µM | RPMI-8226 > 100 µM | NCI-H460 > 100 µM | ACHN > 100 µM | BT-549 19.1 µM | HCT-116 > 100 µM | MOLT-4 > 100 µM | HOP-62 > 100 µM | HOP-92 > 100 µM | SF-295 > 100 µM

CC(NNC(=O)c1ccc[n+]([BH2-]C#N)c1)c1ccccc1 (centres undefined)
> 100 µM: HCT-15
inactive: UACC-62 > 100 µM | COLO 205 > 100 µM | CCRF-CEM 78.7 µM | SNB-19 > 100 µM | HT-29 > 100 µM | Malme-3M > 100 µM | MCF7 > 100 µM | OVCAR-4 > 100 µM | HL-60 86.1 µM | LOX IMVI > 100 µM | 786-0 > 100 µM | EKVX > 100 µM | MDA-MB-435 > 100 µM | OVCAR-8 > 100 µM | SN12C > 100 µM | K562 > 100 µM | OVCAR-5 > 100 µM | MDA-MB-231 > 100 µM | SW-620 > 100 µM | NCI-H522 > 100 µM | SF-539 > 100 µM | OVCAR-3 > 100 µM | DU-145 > 100 µM | PC-3 > 100 µM | IGROV-1 > 100 µM | T47D > 100 µM | SF-268 > 100 µM | HCC 2998 > 100 µM | RXF 393 > 100 µM | NCI/ADR-RES > 100 µM | UO-31 > 100 µM | KM12 > 100 µM | SK-MEL-5 > 100 µM | SNB-75 > 100 µM | UACC-257 > 100 µM | NCI-H226 > 100 µM | SK-MEL-28 > 100 µM | MDA-N > 100 µM | M14 > 100 µM | SK-MEL-2 > 100 µM | U-251 > 100 µM | CAKI-1 > 100 µM | NCI-H23 > 100 µM | TK-10 > 100 µM | NCI-H460 > 100 µM | ACHN > 100 µM | BT-549 > 100 µM | HCT-116 > 100 µM | MOLT-4 38.3 µM | HOP-62 > 100 µM | HOP-92 > 100 µM | SF-295 > 100 µM
